These results are taken from patent US20090048295A1, “SUBSTITUTED 5,6,7,8-TETRAHYDROQUINOLINE DERIVATIVES, COMPOSITIONS, AND METHODS OF USE THEREOF” (priority 2007, published 2009).

The Ki is the equilibrium dissociation constant of an inhibitor or competing ligand from its target. The low end stands for tighter binding, the high end for weaker binding. Broadly, the IC50 is the concentration needed to halve the response being measured. In general, inhibition refers to the relative decrease from the control value, in per cent.

The target of assay [1] is T1, C5a receptor (Homo sapiens, UniProt P21730).
T1 sequence (P21730 1-350): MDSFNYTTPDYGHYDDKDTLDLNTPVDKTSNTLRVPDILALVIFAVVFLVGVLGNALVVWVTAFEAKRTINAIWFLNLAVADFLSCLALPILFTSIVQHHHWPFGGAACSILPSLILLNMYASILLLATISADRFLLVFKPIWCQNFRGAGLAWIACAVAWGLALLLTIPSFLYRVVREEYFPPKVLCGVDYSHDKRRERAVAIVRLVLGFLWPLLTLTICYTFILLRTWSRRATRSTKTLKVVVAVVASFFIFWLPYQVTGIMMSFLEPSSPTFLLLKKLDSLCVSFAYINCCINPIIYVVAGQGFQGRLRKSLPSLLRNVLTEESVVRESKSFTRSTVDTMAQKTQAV
The assay is described as follows: biochemical.
Experimental: (§1) Competition binding assays for C5a receptors were performed by incubation of differentiated U937 cells (200,000 cells/well), test compound (1% DMSO) and [^125I]-C5a (Bolton & Hunter labeled, Perkin Elmer, specific activity=2200 Ci/mmol, 0.05 nM final) in binding buffer consisting of 50 mM HEPES, 5 mM MgCl2, 1 mM CaCl2, 0.5% protease-free BSA, 0.02% NaN3, pH 7.4. 100× solutions of test compounds were prepared in DMSO and further diluted in binding buffer. Non-specific binding was defined in wells containing 100 nM recombinant C5a. Cells and compound were pre-incubated for 30 min at RT. After addition of the radioligand, further incubation for 60 min occurred at 4° C. Cells were harvested on GF/B filters—presoaked in 0.5% polyethylenimine, followed by washing with binding buffer containing 500 mM NaCl, pH 7.4. Filter bound radioactivity was determined by liquid scintillation counting. IC50 and Ki values were calculated using non-linear regression in Graphpad Prism. Ki is calculated using the equation of Cheng and Prusoff (Biochem. Pharmacol. 1973, 22: 3099-3108)

Assay [2] concerns the target T1, C5a receptor. The assay is described as follows: Calcium Mobilization Assay (C5a-induced Ca2+ mobilization, FLIPR, differentiated U937 cells). The format is cell-based. To be noted: […] recombinant human C5a, 20 min pre-incubation, multiple values = duplicate experiments, read-out: C5a Induced Ca Mobil. Average IC50. Set-up: endogenous in cells; host or cells: U937 cells differentiated with dibutyryl cAMP. The essentials: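 Ca2+ responses to 1.5 nM human C5a were read by FLIPR as peak Fluo-3 fluorescence over 2 min in U937 monocytic cells. Cells were differentiated with 1 mM dibutyryl cAMP for 2–3 days and exposed to compound for 20 min at room temperature in 1% DMSO before agonist.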
(Calcium assays in cells follow changes in intracellular calcium, usually with a dye or a luminescent sensor.)

For assay [3], the target named is T1, C5a receptor. The assay is described as follows: [125I]-C5a Radioligand Binding Assay (competition binding, differentiated U937 cells).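 As to all read-outs here: cells preincubated with compound 30 min at room temperature, then 60 min at 4 °C with radioligand, bound counts read by scintillation, nonspecific binding defined with 100 nM C5a.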 Conditions: [125I]-C5a 0.05 nM, U937 cells, multiple values = duplicate experiments; for inhibition at 10 µM: read-out: [125I]-C5a Binding % Inhibition 10 μM, test compound 10 μM; for [125I]-C5a Binding % Inhibition 1 μM: test compound 1 μM; for [125I]-C5a Binding % Inhibition 10 μM: test compound 10 μM; for inhibition at 1 µM: read-out: [125I]-C5a Binding % Inhibition 1 μM, test compound 1 μM.
Experimental: as §1

The target of assay [4] is T1, C5a receptor.
Experimental: as §1

Several values for one entry are separate records, joined by “and”; a condition that tells them apart may be missing. Equal values may be shown once. Read-outs that look alike come from different tables or passages of the source.

In the case of `CCc1cccc(CC)c1-c1ccc2c(n1)CCCC2N(CC)c1cccc2ccccc12` (racemic) [Compound 109, (±)-[2-(2,6-Diethyl-phenyl)-5,6,7,8-tetrahydro-quinolin-5-yl]-ethyl-naphthlen-1-yl-amine], the Ki at C5a receptor [1] came to 1060 nM. Also, the 50% inhibitory concentration (IC50) on C5a receptor [2] was above 10000 nM. Also, on C5a receptor [3], the inhibition at 10 µM worked out at 83%; the “[125I]-C5a Binding % Inhibition 1 μM” value was 65% and 43%; the “[125I]-C5a Binding % Inhibition 10 μM” value is 78%.

On to `CCc1cccc(CC)c1-c1cc(OC)c2c(n1)CCCC2Nc1cc(OC)ccc1C` (stereo not drawn) [Compound 11], for which, at C5a receptor [4], the affinity, expressed as Ki, was 10 nM. Moreover, on C5a receptor [3], the inhibition at 1 µM worked out at 88%, the inhibition at 10 µM turned out to be 92%, the “[125I]-C5a Binding % Inhibition 1 μM” value amounted to 96% and the “[125I]-C5a Binding % Inhibition 10 μM” value was found to be 97%.

Turning to `CCc1cccc(CC)c1-c1cc(OC)c2c(n1)CCCC2N(C)Cc1cccc2ccccc12` (stereo not drawn) [Compound 90], the Ki at C5a receptor [1] worked out at 409 nM. The IC50 on C5a receptor [2] was above 10000 nM. Also, on C5a receptor [3], the inhibition at 1 µM came to 87%, the inhibition at 10 µM is 86%, the “[125I]-C5a Binding % Inhibition 1 μM” value was 71% and the “[125I]-C5a Binding % Inhibition 10 μM” value was found to be 84%.

Regarding `CCc1cccc(CC)c1-c1cc(OC)c2c(n1)CCCC2N(C)C1Cc2ccccc2C1` (stereo not drawn) [Compound 95], the affinity at C5a receptor [1], expressed as Ki, was 2060 nM. For the same compound, at C5a receptor [2], the IC50 was above 10000 nM. Moreover, at C5a receptor [3], the inhibition at 10 µM turned out to be 68%; the “[125I]-C5a Binding % Inhibition 1 μM” value was 45% and 24%; the “[125I]-C5a Binding % Inhibition 10 μM” value is listed as 80%.

`CCN(c1cccc2ccccc12)C1CCCc2nc(-c3ccccc3)cc(OC)c21` (stereo not drawn) [Compound 133] yielded a Ki at C5a receptor [4] of 8290 nM.

At C5a receptor [1], `CCc1cccc(CC)c1-c1cc(OC)c2c(n1)CCCC2N(CC)Cc1ccccc1` (stereo not drawn) [Compound 85] displayed a Ki of 963 nM. The IC50 at C5a receptor [2] is above 10000 nM. At C5a receptor [3], the inhibition at 1 µM amounted to 56%, the inhibition at 10 µM is 75%, the “[125I]-C5a Binding % Inhibition 1 μM” value came to 49% and the “[125I]-C5a Binding % Inhibition 10 μM” value was 79%.

With `CCc1cccc(CC)c1-c1cc(OC)c2c(n1)CCCC2N(C)c1ccccc1` (stereo not drawn) [Compound 82], the Ki on C5a receptor [4] came to 678 nM. Moreover, the IC50 on C5a receptor [2] was found to be 7940 nM. Also, at C5a receptor [3], the inhibition at 1 µM was 66%, the inhibition at 10 µM came out at 81%, the “[125I]-C5a Binding % Inhibition 1 μM” value is reported as 55% and the “[125I]-C5a Binding % Inhibition 10 μM” value is reported as 76%.

`CCc1ccccc1-c1cc(OC)c2c(n1)CCCC2N(CC)c1cccc2ccccc12` (racemic) [Compound 39, (±)-Ethyl-[2-(2-ethyl-phenyl)-4-methoxy-5,6,7,8-tetrahydro-quinolin-5-yl]-naphthlen-1-yl-amine]: the affinity at C5a receptor [1], expressed as Ki, was 86 nM. The IC50 on C5a receptor [2] was determined as 647 nM. Besides, on C5a receptor [3], the inhibition at 1 µM amounted to 81%, the inhibition at 10 µM worked out at 87%, the “[125I]-C5a Binding % Inhibition 1 μM” value came out at 90% and the “[125I]-C5a Binding % Inhibition 10 μM” value was 98%.

Regarding `CCN(c1cccc2ccccc12)C1CCCc2nc(-c3ccccc3F)cc(OC)c21` (stereo not drawn) [Compound 73], the inhibitory constant (Ki) on C5a receptor [4] amounted to 3690 nM. Moreover, the IC50 on C5a receptor [2] amounted to 4590 nM. Besides, on C5a receptor [3], the inhibition at 10 µM stood at 80%; the “[125I]-C5a Binding % Inhibition 1 μM” value is 55% and 34%; the “[125I]-C5a Binding % Inhibition 10 μM” value came to 70%.

On C5a receptor [4], `CCN(c1cccc2ccccc12)C1CCCc2nc(-c3cccc4ccccc34)cc(OC)c21` (stereo not drawn) [Compound 78] showed a Ki of 368 nM. Besides, on C5a receptor [2], the IC50 was 5860 nM. Besides, on C5a receptor [3], the inhibition at 1 µM came out at 71%, the inhibition at 10 µM was 85%, the “[125I]-C5a Binding % Inhibition 1 μM” value turned out to be 72% and the “[125I]-C5a Binding % Inhibition 10 μM” value turned out to be 95%.

For the compound `CCc1cccc(CC)c1-c1cc(OC)c2c(n1)CCCC2N(C)c1cccc2ccccc12` (racemic) [Compound 20, (±)-[2-(2,6-Diethyl-phenyl)-4-methoxy-5,6,7,8-tetrahydro-quinolin-5-yl]-methyl-naphthlen-1-yl-amine], at C5a receptor [1], the affinity, expressed as Ki, was 7.3 nM. Besides, at C5a receptor [2], the IC50 was 165 nM. For the same compound, on C5a receptor [3], the inhibition at 1 µM turned out to be 84%; the inhibition at 10 µM was 93%; the “[125I]-C5a Binding % Inhibition 1 μM” value worked out at 99%; the “[125I]-C5a Binding % Inhibition 10 μM” value is 102% and 100%.

As for `CCc1cccc(CC)c1-c1cc(OC)c2c(n1)CCC[C@@H]2N(C)[C@@H]1CCCc2ccccc21` [Compound 59], at C5a receptor [4], the Ki amounted to 57 nM. Besides, the half-inhibitory concentration (IC50) at C5a receptor [2] was found to be 1900 nM. Further, at C5a receptor [3], the “[125I]-C5a Binding % Inhibition 1 μM” value is listed as 91% and the “[125I]-C5a Binding % Inhibition 10 μM” value came to 89%.

In turn, `CCc1cccc(CC)c1-c1cc(Cl)c2c(n1)CCCC2N(CC)c1cccc2ccccc12` (stereo not drawn) [Compound 60] showed a Ki at C5a receptor [4] of 179 nM. Also, the IC50 on C5a receptor [2] was 1970 nM. On C5a receptor [3], the inhibition at 10 µM stood at 83% and the “[125I]-C5a Binding % Inhibition 10 μM” value was 85%.

With `CCc1cccc(CC)c1-c1cc(OC)c2c(n1)CCCC2N1Cc2ccccc2C1` (stereo not drawn) [Compound 89], the Ki at C5a receptor [1] was 1700 nM. The IC50 at C5a receptor [2] is above 10000 nM. Also, at C5a receptor [3], the inhibition at 10 µM is 75%; the “[125I]-C5a Binding % Inhibition 1 μM” value is 71% and 37%; the “[125I]-C5a Binding % Inhibition 10 μM” value is recorded as 77%.

`CCN(c1cccc2ccccc12)C1CCCc2nc(-c3c(OC)cccc3OC)cc(OC)c21` (stereo not drawn) [Compound 58] yielded a Ki on C5a receptor [1] of 1160 nM. Also, the IC50 at C5a receptor [2] came out at 1770 nM. Also, on C5a receptor [3], the inhibition at 1 µM worked out at 59%, the inhibition at 10 µM is 83%, the “[125I]-C5a Binding % Inhibition 1 μM” value was 46% and the “[125I]-C5a Binding % Inhibition 10 μM” value was 88%.

On to `CCc1cccc(CC)c1-c1cc(OC)c2c(n1)CCCC2N1CCc2ccccc2C1` (stereo not drawn) [Compound 31], for which the Ki at C5a receptor [4] came out at 35 nM. At C5a receptor [3], the inhibition at 10 µM was determined as 87%; the “[125I]-C5a Binding % Inhibition 1 μM” value was 77% and 94% and 96% and 69%; the “[125I]-C5a Binding % Inhibition 10 μM” value is 101% and 100% and 83%.

At C5a receptor [4], `CCc1cccc(CC)c1-c1cc(OC)c2c(n1)CCCC2Nc1ccc(Cl)cc1CO` (stereo not drawn) [Compound 9] had a Ki of 13 nM. Further, the 50% inhibitory concentration (IC50) on C5a receptor [2] amounted to 71 nM. Further, at C5a receptor [3], the inhibition at 1 µM came out at 91% and the inhibition at 10 µM came out at 97%.

`CCc1cccc(CC)c1-c1cc(OC)c2c(n1)CCCC2N1CCc2cccc(C(F)(F)F)c2C1` (stereo not drawn) [Compound 26] returned an inhibitory constant (Ki) on C5a receptor [4] of 9.7 nM. Moreover, at C5a receptor [2], the IC50 worked out at 266 nM. Moreover, at C5a receptor [3], the inhibition at 1 µM was 93%, the inhibition at 10 µM came out at 94%, the “[125I]-C5a Binding % Inhibition 1 μM” value is reported as 96% and the “[125I]-C5a Binding % Inhibition 10 μM” value is given as 99%.

Consider `COc1cc(-c2c(C)cccc2C)nc2c1C(Oc1cc(C(C)C)ccc1C)CCC2` (stereo not drawn) [Compound 111], for which, on C5a receptor [2], the IC50 was above 10000 nM. Further, at C5a receptor [3], the inhibition at 1 µM was 82% and the inhibition at 10 µM is 85%.

As to `CCc1cccc(CC)c1-c1cc(OC)c2c(n1)CCCC2N1CCc2c(cccc2C(=O)OC)C1` (stereo not drawn) [Compound 99], at C5a receptor [2], the half-inhibitory concentration (IC50) was above 10000 nM. Also, on C5a receptor [3], the inhibition at 1 µM was determined as 59% and the inhibition at 10 µM was 76%.

For the compound `CCc1cccc(CC)c1-c1cc(OCc2ccccc2)c2c(n1)CCCC2N(CC)c1cccc2ccccc12` (stereo not drawn) [Compound 27], on C5a receptor [2], the IC50 came to 273 nM. Also, at C5a receptor [3], the inhibition at 1 µM is 90% and the inhibition at 10 µM is 94%.

On to `COc1cc(-c2c(C)cccc2C)nc2c1C(N(C)c1cccc3ccccc13)CCC2` (stereo not drawn) [Compound 61], for which the IC50 on C5a receptor [2] is 2190 nM. In addition, at C5a receptor [3], the inhibition at 1 µM amounted to 76% and the inhibition at 10 µM came out at 88%.
